According to patent US4455290A, “Inhibition of fibrin polymerization by a peptide isolated from fibrin Fragment D1” (Research Corporation, priority 1981, dated 1984):
Peptide text beside a SMILES is read from it.

What was measured:
fibrinogen = target: T1, fibrinogen (Homo sapiens, UniProt P02671+P02675+P02679); test: Equilibrium binding of 125-I D1 Peptide, fibrinogen
T1 construct: purchased Grade L
T1 sequence (P02671 20-644 isoform P02671-2 limits assumed): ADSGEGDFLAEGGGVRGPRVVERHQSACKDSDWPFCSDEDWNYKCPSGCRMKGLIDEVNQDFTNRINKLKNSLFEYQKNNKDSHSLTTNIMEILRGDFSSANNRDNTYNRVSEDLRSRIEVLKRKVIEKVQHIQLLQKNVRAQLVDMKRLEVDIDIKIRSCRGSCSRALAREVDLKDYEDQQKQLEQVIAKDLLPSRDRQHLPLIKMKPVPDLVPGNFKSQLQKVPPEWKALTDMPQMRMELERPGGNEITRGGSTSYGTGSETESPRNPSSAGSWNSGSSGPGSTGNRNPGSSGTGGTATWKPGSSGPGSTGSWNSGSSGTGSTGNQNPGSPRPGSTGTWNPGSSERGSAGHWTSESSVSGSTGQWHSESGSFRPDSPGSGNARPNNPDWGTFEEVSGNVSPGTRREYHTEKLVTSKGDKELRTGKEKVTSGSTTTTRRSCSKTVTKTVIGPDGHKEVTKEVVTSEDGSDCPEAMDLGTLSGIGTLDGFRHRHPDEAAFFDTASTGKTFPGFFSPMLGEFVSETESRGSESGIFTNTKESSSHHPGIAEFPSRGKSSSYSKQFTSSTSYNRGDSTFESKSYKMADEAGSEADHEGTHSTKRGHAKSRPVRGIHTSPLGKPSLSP
T1 sequence (P02675 31-491): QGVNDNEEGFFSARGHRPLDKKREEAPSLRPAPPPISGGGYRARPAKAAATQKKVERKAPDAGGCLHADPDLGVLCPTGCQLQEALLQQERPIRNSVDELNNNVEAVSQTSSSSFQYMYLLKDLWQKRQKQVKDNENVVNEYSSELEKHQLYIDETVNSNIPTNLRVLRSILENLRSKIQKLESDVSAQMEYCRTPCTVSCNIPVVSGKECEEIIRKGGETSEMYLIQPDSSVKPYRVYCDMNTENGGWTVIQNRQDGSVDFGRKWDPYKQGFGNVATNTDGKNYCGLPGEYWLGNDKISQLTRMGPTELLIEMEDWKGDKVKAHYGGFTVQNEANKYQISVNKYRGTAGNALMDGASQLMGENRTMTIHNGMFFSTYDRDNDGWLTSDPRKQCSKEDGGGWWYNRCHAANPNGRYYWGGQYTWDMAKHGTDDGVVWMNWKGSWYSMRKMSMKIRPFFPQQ
T1 sequence (P02679 27-437 isoform P02679-2 limits assumed): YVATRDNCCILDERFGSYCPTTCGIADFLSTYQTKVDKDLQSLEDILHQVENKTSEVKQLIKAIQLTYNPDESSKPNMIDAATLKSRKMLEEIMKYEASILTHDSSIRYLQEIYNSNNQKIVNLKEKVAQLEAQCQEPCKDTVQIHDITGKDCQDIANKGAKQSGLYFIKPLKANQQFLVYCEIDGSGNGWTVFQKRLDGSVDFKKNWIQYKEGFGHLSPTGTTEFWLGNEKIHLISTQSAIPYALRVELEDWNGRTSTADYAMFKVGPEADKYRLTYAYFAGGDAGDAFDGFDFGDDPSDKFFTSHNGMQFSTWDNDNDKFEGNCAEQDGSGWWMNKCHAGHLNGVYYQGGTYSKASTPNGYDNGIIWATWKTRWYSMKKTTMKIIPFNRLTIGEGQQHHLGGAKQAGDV
Source text: (§1) Acta 133, 376-379 (1979).

[1] = target: T2, batroxobin fibrin monomer (Homo sapiens, UniProt P02671+P02675+P02679); test: Sephadex gel equilibrium binding, batroxobin fibrin monomer; conditions: 17 experiments, mean and standard deviation
T2 construct: fibrin monomer which was formed by batroxobin (lacking fibrinopeptide A); made in house; host or cells: not recombinant: made from fibrinogen by treatment with batroxobin (Bothrops atrox venom enzyme)
T2 sequence (P02671 36-629 isoform P02671-2): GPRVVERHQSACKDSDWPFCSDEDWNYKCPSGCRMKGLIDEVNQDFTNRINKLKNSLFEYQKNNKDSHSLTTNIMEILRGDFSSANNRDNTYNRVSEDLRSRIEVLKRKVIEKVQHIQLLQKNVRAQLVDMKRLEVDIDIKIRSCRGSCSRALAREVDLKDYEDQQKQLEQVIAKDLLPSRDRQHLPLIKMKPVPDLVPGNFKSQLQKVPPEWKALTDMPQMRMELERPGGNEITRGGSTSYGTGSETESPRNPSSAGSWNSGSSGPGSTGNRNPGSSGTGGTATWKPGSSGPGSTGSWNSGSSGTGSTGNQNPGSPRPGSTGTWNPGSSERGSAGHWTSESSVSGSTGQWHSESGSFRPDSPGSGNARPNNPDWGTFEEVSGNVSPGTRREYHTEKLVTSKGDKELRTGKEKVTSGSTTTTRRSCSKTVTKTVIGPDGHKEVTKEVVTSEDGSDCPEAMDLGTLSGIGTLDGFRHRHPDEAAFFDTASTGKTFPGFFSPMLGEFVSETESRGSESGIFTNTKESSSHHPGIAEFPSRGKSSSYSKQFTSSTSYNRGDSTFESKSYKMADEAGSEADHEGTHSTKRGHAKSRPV
T2 sequence (P02675 31-491): T1 sequence (P02675 31-491)
T2 sequence (P02679 27-437 isoform P02679-2): T1 sequence (P02679 27-437 isoform P02679-2 limits assumed)
Method: as §1
The purification of NDSK involves incubation of fibrinogen in cyanogen bromide in the presence of 70% formic acid. This treatment may alter the binding sites. Therefore, an attempt was made to reproduce the data using fibrin monomer instead of thrombin-treated NDSK. A major difficulty, the self-polymerization of fibrin monomer, was overcome by using high molar ratios of D1 Peptide to fibrin monomer. However, in this situation the concentration of D1 Peptide could be varied only over a small range of concentrations. D1 Peptide was added to the Sephadex gel equilibrium system and incubated for 10 min., then soluble fibrin monomer was added in a molar excess of D1 Peptide to fibrin monomer of 100-1000 fold. Under these conditions the lag time in the fibrin monomer polymerization was more than 30 min.
In experiments using thrombin fibrin monomer the number of binding sites for D1 Peptide was 1.82±0.26 (15 experiments, mean and standard deviation). For batroxobin fibrin monomer the number of binding sites was 1.91±0.24 (17 experiments, mean and standard deviation).

In the case of `CC[C@H](C)[C@H](NC(=O)[C@H](CCCCN)NC(=O)[C@H](CCSC)NC(=O)[C@@H](NC(=O)[C@@H](NC(=O)[C@H](CCCCN)NC(=O)[C@H](CCCCN)NC(=O)[C@H](CCSC)NC(=O)[C@H](CO)NC(=O)[C@H](Cc1ccc(O)cc1)NC(=O)[C@H](Cc1c[nH]c2ccccc12)NC(=O)[C@H](CCCNC(=N)N)NC(=O)[C@@H](N)[C@@H](C)O)[C@@H](C)O)[C@@H](C)O)C(=O)N[C@H](C(=O)N1CCC[C@H]1C(=O)N[C@@H](Cc1ccccc1)C(=O)N[C@@H](CC(N)=O)C(=O)N[C@@H](CCCNC(=N)N)C(=O)N[C@@H](CC(C)C)C(=O)N[C@H](C(=O)N[C@H](C(=O)NCC(=O)N[C@@H](CCC(=O)O)C(=O)NCC(=O)N[C@@H](CCC(N)=O)C(=O)N[C@@H](CCC(N)=O)C(=O)N[C@@H](Cc1c[nH]cn1)C(=O)N[C@@H](Cc1c[nH]cn1)C(=O)N[C@@H](CC(C)C)C(=O)NCC(=O)NCC(=O)N[C@@H](C)C(=O)N[C@@H](CCCCN)C(=O)N[C@@H](CCC(N)=O)C(=O)N[C@@H](C)C(=O)NCC(=O)N[C@@H](CC(=O)O)C(=O)N[C@H](C(=O)O)C(C)C)[C@@H](C)CC)[C@@H](C)O)[C@@H](C)CC` [D1 Peptide] (H-TRWYSMKKTTMKIIPFNRLTIGEGQQHHLGGAKQAGDV-OH), the binding to fibrinogen (fibrinogen) is reported as “no measurable binding” and the “number of binding sites for D1 Peptide” value [1] is reported as 1.91±0.24.
